Measurements from paper PMC8778818, “Synthesis, Structural Characterization and Anticancer Activity of New 5-Trifluoromethyl-2-thioxo-thiazolo[4,5-d]pyrimidine Derivatives” (Pharmaceuticals, 2022).
Entries after “also recorded” stand apart in the source; their conditions may differ.

Key:
DU145 = experiment: MTT cell viability assay, DU145; assay type: cell-based, human; details: Homo sapiens, DU-145; DU145, MTT, 72 h, mean ± SD
Description: (§1) Twelve compounds (2a-e, 3a-d and 4a-c) at a concentration range of 50–5000 μM were tested for their antiproliferative potential against four human cancer cell lines (A375—melanotic melanoma, C32—amelanotic melanoma, DU145—prostate cancer androgen-independent, MCF-7/WT—breast adenocarcinoma) and two normal cell lines: Chinese Hamster Ovary (CHO-K1) and immortalized human keratinocytes from histologically normal skin (HaCaT).
(§2) To determine the antiproliferative activity of newly synthesized compounds, the following cell lines were used: human melanotic melanoma cell line (A375), human amelanotic melanoma cell line (C32), human breast adenocarcinoma cell line (MCF-7/WT), human prostate cancer androgen-independent (DU145) and two normal cell lines: hamster ovarian (CHO-K1) and immortalized human keratinocytes from histologically normal skin (HaCaT). The cells were obtained from the cell line bank of the Department of Molecular and Cellular Biology, Wroclaw Medical University. A375, C32, MCF-7/WT, DU145 and HaCaT cells were grown in a monolayer cultured in Dulbecco’s Modified Eagle’s Medium (DMEM, Sigma-Aldrich, Poznań, Poland), supplemented with 10% of fetal bovine serum (FBS, Gibco, Paisley, UK) and 1% of antibiotics (penicillin/streptomycin, Sigma-Aldrich) and CHO-K1 were grown in HAM’s F-12 medium (Sigma-Aldrich), supplemented with 10% fetal bovine serum (FBS, Gibco) and 1% of antibiotics (penicillin/streptomycin, Sigma-Aldrich). Cell lines were cultured in the polystyrene flasks 25 or 75 cm^2 (Thermo Fisher Scientific, Waltham, MA, USA), which were stored in 37 °C and 5% CO2 in a humidified 95% atmosphere (SteriCult, Thermo Scientific, Alab). The cell medium was exchanged twice a week. The exponentially growing cells were used throughout the experiments. The cells were rinsed with phosphate-buffered saline (PBS, Sigma-Aldrich) and trypsinized by Trypsin-EDTA 0.25% solution (Sigma-Aldrich).
(§3) The influence of the compounds was performed in a monolayer culture on cancer and normal cells. Compounds were initially dissolved in DMSO; further dilutions of the compound were performed in Dulbecco’s Modified Eagle’s Medium supplemented with 10% FBS. Compounds were tested in a 50–5000 µM concentration range. In the in vitro experiments, the concentrations of DMSO in the final solution of the compounds were used 0.05%; 0.1%; 0.5%; 1%, respectively.
(§4) Cell viability was determined using the MTT colorimetric assay. All cell lines were seeded into 96-well plates to a density of 3 × 10^4 cells/well. After 24 h, the culture supernatants were removed and appropriate dilutions of compounds in the culture medium (200 µL/well) were added to the cells’ monolayer cultures and incubated for an additional 72 h. After 72 h of exposition to the compounds and the removal of the culture medium, cell viability was determined by reducing the yellow dye 3-(4,5-dimethyl-2-thiazol)-2,5-diphenyl-2H-tetrazolium bromide (MTT assay, Sigma Saint Louis, MO, USA; In Vitro Toxicology Assay) to a blue formazan product. The absorbance of the resulting solutions in three duplicate experiments was measured at the wavelength of 560 nm in a microplate reader (EnSpire, Perkin Elmer, Kraków, Poland). MTT assay is a colorimetric method that estimates the rate of metabolism in viable cells. Absorbance is directly proportional to the number of viable cells. All the experiments were performed three times and the mean absorbance values were calculated. The methodology for the evaluation of the growth of human cancer and normal cells was described previously. The cell viability in each group was expressed as a percentage of control (untreated) cells.

HaCaT = experiment: MTT cell viability assay, HaCaT; assay type: cell-based, human; details: Homo sapiens; HaCaT normal cells, MTT, 72 h, mean ± SD
Description: as §1, §2, §3, §4

[1] = system: A375, C32, DU145, MCF-7/WT, CHO-K1 and HaCaT cell lines; experiment: MTT cell viability assay, all six cell lines; assay type: cell-based; details: mean over the six cell lines; read-out: Mean A: the mean IC50 for the given compound
Description: as §1, §2, §3, §4

[2] = system: 60 human cancer cell lines; experiment: NCI-60 anticancer screen, full panel; assay type: cell-based; details: 10^−5 M one dose; for Mean Growth %: mean over the panel
A549/ATCC = experiment: NCI-60 screen, Non-Small Cell Lung Cancer A549/ATCC; assay type: cell-based, human; details: 10^−5 M one dose
HOP-92 = experiment: NCI-60 screen, Non-Small Cell Lung Cancer HOP-92; assay type: cell-based, human; details: HOP-92, 10^−5 M one dose
HCT-116 = experiment: NCI-60 screen, Colon Cancer HCT-116; assay type: cell-based, human; details: HCT-116, 10^−5 M one dose
KM12 = experiment: NCI-60 screen, Colon Cancer KM12; assay type: cell-based, human; details: KM12, 10^−5 M one dose
SF-539 = experiment: NCI-60 screen, CNS Cancer SF-539; assay type: cell-based, human; details: SF-539, 10^−5 M one dose
SNB-19 = experiment: NCI-60 screen, CNS Cancer SNB-19; assay type: cell-based, human; details: SNB-19, 10^−5 M one dose
LOX IMVI = experiment: NCI-60 screen, Melanoma LOX IMVI; assay type: cell-based, human; details: 10^−5 M one dose
UACC-257 = experiment: NCI-60 screen, Melanoma UACC-257; assay type: cell-based; details: UACC-257, 10^−5 M one dose
UACC-62 = experiment: NCI-60 screen, Melanoma UACC-62; assay type: cell-based, human; details: UACC-62, 10^−5 M one dose
OVCAR-4 = experiment: NCI-60 screen, Ovarian Cancer OVCAR-4; assay type: cell-based, human; details: OVCAR-4, 10^−5 M one dose
NCI/ADR-RES = experiment: NCI-60 screen, Ovarian Cancer NCI/ADR-RES; assay type: cell-based, human; details: 10^−5 M one dose
TK-10 = experiment: NCI-60 screen, Renal Cancer TK-10; assay type: cell-based, human; details: TK-10, 10^−5 M one dose
PC-3 = experiment: NCI-60 screen, Prostate C. PC-3; assay type: cell-based; details: PC-3, 10^−5 M one dose
DU-145 = experiment: NCI-60 screen, Prostate C. DU-145; assay type: cell-based; details: DU-145, 10^−5 M one dose
MCF7 = experiment: NCI-60 screen, Breast Cancer MCF7; assay type: cell-based, human; details: MCF7, 10^−5 M one dose
BT-549 = experiment: NCI-60 screen, Breast Cancer BT-549; assay type: cell-based, human; details: BT-549, 10^−5 M one dose

SMILES | IC50 (DU145) | IC50 (HaCaT) | IC50 [1] | activity in the one-dose assay (in words) [2] | Mean Growth % [2] | Growth of Cells (%) (A549/ATCC) | Growth of Cells (%) (HCT-116) | Growth of Cells (%) (KM12) | Growth of Cells (%) (SF-539) | Growth of Cells (%) (SNB-19) | Growth of Cells (%) (LOX IMVI) | Growth of Cells (%) (UACC-257) | Growth of Cells (%) (UACC-62) | Growth of Cells (%) (OVCAR-4) | Growth of Cells (%) (NCI/ADR-RES) | Growth of Cells (%) (TK-10) | Growth of Cells (%) (DU-145) | Growth of Cells (%) (MCF7) | Growth of Cells (%) (BT-549) | further results
O=c1[nH]c(C(F)(F)F)nc2c1sc(=S)n2-c1ccccc1 [Compound 2b, 3-phenyl-2-thioxo-5-(trifluoromethyl)-2,3-dihydro[1, 3]thiazolo[4,5-d]pyrimidin-7(6H)-one] | 356 ± 14.7 µM | 712 ± 29.3 µM | 468 µM | insufficient activity | 103.88% | 103.88% | 102.27% | 100.96% | 114.10% | 102.20% | 84.58% | 107.08% | 109.52% | 117.19% | 25.77% | 130.06% | 109.40% | 111.19% | 130.31% | Growth of Cells (%) (HOP-92): 97.54%; Growth of Cells (%) (PC-3): 100.88%
CCNc1nc(C(F)(F)F)nc2c1sc(=S)n2-c1ccccc1 [Compound 4b, 7-(ethylamino)-3-phenyl-5-(trifluoromethyl)[1, 3]thiazolo[4,5-d]pyrimidine-2(3H)-thione] | 323 ± 13.8 µM | 730 ± 31.1 µM | 476 µM | insufficient activity; also recorded: inactive | 96.94% | 74.36% | 94.34% | 89.17% | 100.98% | 106.58% | 88.57% | 98.66% | 93.86% | 98.24% | 92.88% | 88.79% | 101.28% | 96.38% | 95.21% | 
